Consider nine molecules from paper PMC10805311, “Pseudomonas aeruginosa two-component system CprRS regulates HigBA expression and bacterial cytotoxicity in response to LL-37 stress” (PLOS Pathogens, 2024).

Assay [1] deals with P. aeruginosa PAO1 strain H103. The note with it: cited from earlier work. An excerpt: TCSs represent the most common signal-transduction cascades in bacteria, sensing external cues such as ions, peptides, and compounds [46, 47]. Canonical TCSs comprise a transmembrane sensor histidine kinase (HK) and an intracellular response regulator (RR). Upon binding to specific stimuli, the HK undergoes autophosphorylation and transfers the phosphoryl group to the RR, activating its transcription regulation ability to influence bacterial behavior. To date, over 60 TCSs have been identified in the P. aeruginosa PAO1 genome, they have been recognized as crucial players in various b ...

Assay [2] relates to full-length CprS (CprSFL). Description: Microscale thermophoresis (MST), full-length CprS. The class given is binding, P. aeruginosa. The note with it: 100 nM CprS, cationic peptides from 500 μM, 25°C 30 min. Here is the method: The E. coli BL21 (DE3) strains harboring pET22b-cprS and pET22b-cprR were cultured at 37°C in LB medium and suppled with 0.4 mM IPTG as the OD600 reached to 0.8. The cultures were incubated at 16°C for an additional 14 h and the cells were collected and resuspended in buffer A (20 mM tris-HCl (pH 8.0), 150 mM NaCl). The cells were lysed by ultrasound and centrifuged at 15, 000 rpm for 20 min at 4°C. Then the supernatant was applied to Ni-agarose resins and eluted with buffer containing 300 mM imidazole. As for full-length CprS, the supernatant needed to be extracted by 2% ELUGENT Detergent and flow 0.02% DDM for elution. The target proteins were further purified via AKTA purifier using buffer A and concentrated to 12 mg/mL.
The 100 nM CprS with His-tag was labeled with Monolith His-Tag Labelling Kit RED-tris-NTA 2nd Generation Kit and the cationic peptides used in this work were diluted with PBST buffer gradient from 0.5 mM [34]. The proteins and cationic peptide dilutions were mixed and incubated at 25°C for 30 min and detected on a Monolith NT.115 instrument. The data were analyzed by NanoTemper Analysis 1.2.20 software.
(In MST a laser heats a spot of the sample, and binding alters the fluorescence response.)

Assay [3] has as its system WT P. aeruginosa. As to the kind of experiment: microbe, parasite or virus in culture. The class given is cell-based. The note with it: 37°C; for MIC (+ LL-37): antibiotic + LL-37 (LL-37 pretreatment), LB medium, 24 h; for MIC: without LL-37, LB medium, OD600 = 0.1, 24 h. The procedure: (§1) The initial concentrations of meropenem, cephalosporin, tetracycline, gentamicin, ciprofloxacin, polymyxin B, and colistin are: 0.1 mg/mL, 0.02 mg/mL, 0.5 mg/mL, 0.16 mg/mL, 1 mg/mL, 0.1 mg/mL, and 0.1 mg/mL, all the antibiotics were 10 × gradient dilution with sterile PBS buffer. Overnight bacterial cultures of WT P. aeruginosa and mutants were re-inoculated into fresh LB medium supplemented at OD600 = 0.1, then 90 μL cultures and 10 μL antibiotic dilutions were added in a 96-well microtiter dish for 24 h at 37°C.

Assay [4] deals with P. aeruginosa ΔcprR. Type of assay: cell-based. The note with it: 37°C; for MIC (+ LL-37): antibiotic + LL-37 (LL-37 pretreatment), LB medium, 24 h; for MIC: without LL-37, LB medium, OD600 = 0.1, 24 h. Here is the method: as §1
Assay [5] concerns P. aeruginosa ΔcprS. Type of assay: cell-based. The note with it: 37°C; for MIC (+ LL-37): antibiotic + LL-37 (LL-37 pretreatment), LB medium, 24 h; for MIC: without LL-37, LB medium, OD600 = 0.1, 24 h. Here is the method:
as §1

Assay [6] has as its target full-length CprS (CprSFL), sensor histidine kinase of the two-component system CprRS (Pseudomonas aeruginosa). Description: MST; 100 nM His-tagged CprS labelled with Monolith His-Tag Labelling Kit RED-tris-NTA 2nd Generation; cationic peptides in 16 doubling dilutions from 500 uM (0.5 mM) in PBST; incubated at 25 C for 30 min; Monolith NT.115; repeated three times.
The target in assay [7] is CprS periplasmic sensor domain CprSSD (residues 28-163) (Pseudomonas aeruginosa). The assay is described as above.
The test system of assay [8] is cprR. As to the kind of experiment: qRT-PCR, cprR transcription. The class given is cell-based, P. aeruginosa. The note with it: oprL as normalizer. The procedure:
(§2) Overnight bacterial cultures were subcultured in fresh LB medium to OD600 0.8 and the cells were collected by using Trizol. The cDNA was synthesized by using PrimeScript RT reagent Kit. 2 × SYBR qPCR Master Mix was used to perform qPCR assays. The reaction step was 2 × SYBR qPCR Master Mix (Without ROX) 10 μL, upstream Primer (10 μM) 0.4 μL, downstream Primer (10 μM) 0.4 μL, template cDNA 1 μg and ddH2O up to 20 μL. The qPCR procedure was set as: stage 1 (95°C 30 s, repeat once), stage 2 (95°C 10 s, 60°C 30 s, repeat for 40 times) and stage 3 (95°C 15 s, 60°C 1 min, 95°C 15 s, repeat 1 time). The oprL gene was used as a normalizer. The same method was used for mammalian cells, and 18 sRNA served as a normalizer.
A general note: Quantitative PCR measures a nucleic acid by following its amplification.

The test system of assay [9] is cprS. As to the kind of experiment: qRT-PCR, cprS transcription. Type of assay: cell-based, P. aeruginosa. The note with it: oprL as normalizer. Here is the method: as §2
Assay [10] relates to CarSR system. The note with it: Vibrio cholerae; cited from earlier work. An excerpt:
In the field of microbiology and immunology, the interaction between host antimicrobial peptides and pathogenic bacteria has been a subject of extensive research. The success of bacterial infections depends on a delicate balance of signals exchanged between microbes and hosts. Cationic antimicrobial peptides, including defensins such as α-defensins, β-defensins, and cathelicidin LL-37, are crucial components of innate host defense against bacterial infections. Numerous studies have shown that LL-37 acts as a shield between the host and the external environment, preventing bact ...

The mark [11] stands for this setting: Pseudomonas aeruginosa, read-out: MIC.

Converted amounts (≈) assume the structure as drawn. Where two headings read alike, the source gives them in different places. Residues, ends and D or L forms follow the SMILES beside them. No end group written: not given here.

Regarding “indolicidin: cationic peptide antibiotic (ILPWKWPWWPWRR; ends and bridges not checked; UniProt P33046 131-143, looked up)”, in assay [1], the CprRS-mediated adaptive resistance entry is listed as “adaptive resistance”.
`CC[C@H](C)CCCCC(=O)N[C@@H](CCN)C(=O)N[C@H](C(=O)N[C@@H](CCN)C(=O)N[C@H]1CCNC(=O)[C@H]([C@@H](C)O)NC(=O)[C@H](CCN)NC(=O)[C@H](CCN)NC(=O)[C@H](CC(C)C)NC(=O)[C@@H](CC(C)C)NC(=O)[C@H](CCN)NC1=O)[C@@H](C)O` [colistin, Colistin] (HELM PEPTIDE1{[CC[C@H](C)CCCCC(=O)[*:2]].[Dab].T.[Dab].[Dab].[Dab].[dL].L.[Dab].[Dab].T}$PEPTIDE1,PEPTIDE1,5:R3-11:R2$$$V2.0; N-terminus assumed; bridges inferred): in [2], the “binding to CprS” value is “no binding was observed”. The “MIC (+ LL-37)” value was determined as 64 µg/mL in assay [3], 1 µg/mL in assay [4] and 0.5 µg/mL in assay [5]. Further, the MIC in [3] amounted to 4 µg/mL (≈ 3.42 µM); in assay [4], 1 µg/mL (≈ 0.855 µM); in [5] it was 1 µg/mL (≈ 0.855 µM).
As to `CNC(C)C1CCC(N)C(OC2C(N)CC(N)C(OC3OCC(C)(O)C(NC)C3O)C2O)O1` (stereo not shown) [GM, Gentamicin], the MIC in [3] (setting [11]) turned out to be 12.5 µg/mL (≈ 26.2 µM).
In the case of `C[C@@H](O)[C@H]1C(=O)N2C(C(=O)O)=C(S[C@@H]3CN[C@H](C(=O)N(C)C)C3)[C@H](C)[C@H]12` [MEM, Meropenem], the MIC in [3] (setting [11]) turned out to be 10 µg/mL (≈ 26.1 µM).
As usually defined, the Kd is the concentration at which binding is half-saturated. Read a high Kd as weaker binding. Consider human host defense peptide LL-37, for which the Kd in assay [6] stood at 1.41 µM; in [7], 5.34 µM.
In the case of `CN(C)[C@@H]1C(O)=C(C(N)=O)C(=O)[C@@]2(O)C(O)=C3C(=O)c4c(O)cccc4[C@@](C)(O)[C@H]3C[C@@H]12` [TE, Tetracycline], in assay [3] (setting [11]), the MIC was 3.2 µg/mL (≈ 7.2 µM).
Consider `CC[C@H](C)CCCCC(=O)N[C@@H](CCN)C(=O)N[C@H](C(=O)N[C@@H](CCN)C(=O)N[C@H]1CCNC(=O)[C@H]([C@@H](C)O)NC(=O)[C@H](CCN)NC(=O)[C@H](CCN)NC(=O)[C@H](CC(C)C)NC(=O)[C@@H](Cc2ccccc2)NC(=O)[C@H](CCN)NC1=O)[C@@H](C)O` [Polymyxin B] (HELM PEPTIDE1{[CC[C@H](C)CCCCC(=O)[*:2]].[Dab].T.[Dab].[Dab].[Dab].[dF].L.[Dab].[Dab].T}$PEPTIDE1,PEPTIDE1,5:R3-11:R2$$$V2.0; N-terminus assumed; bridges inferred), for which the “expression of cprR under Polymyxin B treatment” value in assay [8] is reported as “no significant change in expression was observed”. For the same molecule, the “expression of cprS under Polymyxin B treatment” value in assay [9] was “no significant change in expression was observed”. In [1], the CprRS-mediated adaptive resistance entry is “adaptive resistance”. Also, the “binding to CprS” value in assay [2] is “no binding was observed”. The results for the “MIC (+ LL-37)” value in assay [3], in [4] and in [5] were 64 µg/mL, 1 µg/mL and 1 µg/mL, respectively. Further, the values for the MIC in assay [3], in [4] and in assay [5] were 4 µg/mL (≈ 3.32 µM), 2 µg/mL (≈ 1.66 µM) and 2 µg/mL (≈ 1.66 µM), respectively.
Regarding `O=C(O)c1cn(C2CC2)c2cc(N3CCNCC3)c(F)cc2c1=O` [CIP, ciprofloxacin], the MIC in assay [3] (setting [11]) was determined as 2 µg/mL (≈ 6.04 µM).

B1: α-defensin 5: human enteric α-defensin 5 (peptide, UniProt Q01523 20-94, looked up)
Defensin alpha 5: ESLQERADEATTQKQSGEDNQDLAISFAGNGLSALRTSGSQARATCYCRTGRCATRESLSGVCEISGRLYRLCCR
modifications: Defensin-5
Turning to B1, the “sensing by CarSR” value in [10] was “sense human enteric α-defensin 5 and LL-37 to promote bacterial pathogenicity”.
